Read-outs that look alike come from different tables or passages of the source.
Experiments:
Format in all cases: cell-based
HTT [1] = test: Splicing assay (RT-qPCR on cell lysates) monitoring HTT splice variants: AJ and CJ mRNA; details: concentration having 50% response
Description: Example 69: Exemplary Splicing Assay for Monitoring Expression Levels of Splice Variants
(§1) To set up 10 uL RT-qPCR reactions, cell lysates were transferred to 384-well qPCR plates containing the master mix according to the table below. The plates were sealed, gently vortexed, and spun down before the run. The volumes were adjusted accordingly in some instances where the reaction was carried in 20 uL. The table below summarizes the components of the RT-qPCR reactions:
(§2) The RT-qPCR reaction was performed using a QuantStudio (ThermoFisher) under the following fast cycling conditions. All samples and standards were analyzed at least in duplicate. In some instances, bulk room temperature (RT) step of 5-10 minutes was completed for all plates before proceeding with qPCR. The table below summarizes the PCR cycle:
(§3) The data analysis was performed by first determining the ΔCt vs the housekeeper gene. This ΔCt was then normalized against the DMSO control (ΔΔCt) and converted to RQ (relative quantification) using the 2^(−ΔΔCt) equation. The RQ were then converted to a percentage response by arbitrarily setting an assay window of 3.5 ΔCt for HTT-CJ and an assay window of 9 ΔCt for HTT-AJ. […] The percentage response was then fitted to the 4 parametric logistic equation to evaluate the concentration dependence of compound treatment. The increase in AJ mRNA is reported as AC50 (compound concentration having 50% response in AJ increase) while the decrease in CJ mRNA levels is reported as IC50 (compound concentration having 50% response in CJ decrease).

SMN2 = test: Gene panel canonical junction qPCR assay, SMN2 CJ mRNA; details: Table 9, CJ mRNA decrease, read-out: SMN2 IC50 (decrease in CJ mRNA levels)
Description: as §1, §2, §3
(§4) Additional studies were carried out for a larger panel of genes using the protocol provided above. The junction between flanking upstream and downstream exons was used to design canonical junction qPCR assays. At least one of the forward primer, reverse primer or the CY5-labeled 5′ nuclease probe (with 3′ quencher such as ZEN/Iowa Black FQ) was designed to overlap with the exon junction to capture the CJ mRNA transcript. BLAST was used to confirm the specificity of the probeset and parameters such as melting temperature, GC content, amplicon size, and primer dimer formation are considered during their design. Data for the decrease in CJ mRNA levels for three exemplary genes (HTT, SMN2, and Target C) analyzed in this panel are reported as IC50 (compound concentration having 50% response in CJ decrease).

HTT [2] = test: Gene panel canonical junction qPCR assay, HTT CJ mRNA; details: Table 9, CJ mRNA decrease, read-out: HTT IC50 (decrease in CJ mRNA levels)
Description: as §1, §2, §3, §4

Target C = test: Gene panel canonical junction qPCR assay, Target C CJ mRNA; details: Table 9, CJ mRNA decrease, read-out: Target C IC50 (decrease in CJ mRNA levels)
Description: as §1, §2, §3, §4

[3] = Table 8, decrease in CJ mRNA, read-out: HTT CJ AC50
[4] = Table 8, increase in AJ mRNA, read-out: HTT AJ AC50
[5] = Table 7, decrease in CJ mRNA, read-out: HTT CJ AC50
[6] = Table 7, increase in AJ mRNA, read-out: HTT AJ AC50

Row | SMILES | AC50 (HTT [1]; [3]) [µM] | AC50 (HTT [1]; [4]) [µM] | IC50 (SMN2) [µM] | IC50 (HTT [2]) [µM] | IC50 (Target C) [µM] | AC50 (HTT [1]; [5]) [µM] | AC50 (HTT [1]; [6]) [µM]
1 | c1n[nH]cc1-c1ccc(-c2ccc(O[C@@H]3C[C@H]4CCC[C@@H](C3)N4)nn2)c2[nH]ncc12 [Compound 219] | 0.1 to 1 | 0.1 to 1 | < 0.1 | 0.1 to 1 | 0.1 to 1 | – | –
2 | c1n[nH]cc1-c1ccc(-c2ccc(OC3CCNCC3)nn2)c2[nH]ncc12 [Compound 230] | > 10 | > 10 | 1 to 10 | > 10 | > 10 | – | –
3 | c1nc2c(-c3cn[nH]c3)ccc(-c3ccc(N[C@@H]4C[C@H]5CCC[C@@H](C4)N5)nn3)c2s1 [Compound 215] | < 0.1 | < 0.1 | < 0.1 | < 0.1 | < 0.1 | – | –
4 | c1nc2c(-c3cn[nH]c3)ccc(-c3ccc(N4CCC5(CC4)CNC5)nn3)c2s1 [Compound 188] | > 10 | > 10 | > 10 | > 10 | > 10 | > 5 | > 5
5 | CCN(c1ccc(-c2ccc(-c3cn[nH]c3)c3ncsc23)nn1)[C@@H]1C[C@H]2CC[C@@H](C1)N2 [Compound 203, (exo-)-N-ethyl-N-[6-[4-(1H-pyrazol-4-yl)-1,3-benzothiazol-7-yl]pyridazin-3-yl]-8-azabicyclo[3.2.1]octan-3-amine] | 0.1 to 1 | 0.1 to 1 | < 0.1 | 0.1 to 1 | 0.1 to 1 | – | –
6 | Cc1[nH]ncc1-c1ccc(-c2ccc(N(C)C3CC(C)(C)NC(C)(C)C3)nn2)c2ncsc12 [Compound 176] | > 10 | 1 to 10 | > 10 | > 10 | > 10 | – | –
7 | CN(c1ccc(-c2ccc(-c3cn[nH]c3)c3ncsc23)nn1)C1CCNCC1 [Compound 222, N-methyl-N-(piperidin-4-yl)-6-[4-(1H-pyrazol-4-yl)-1,3-benzothiazol-7-yl]pyridazin-3-amine] | 1 to 10 | 1 to 10 | 0.1 to 1 | 1 to 10 | 1 to 10 | – | –
8 | CC1(C)CC(Oc2ccc(-c3ccc(-c4cn[nH]c4)c4cn[nH]c34)nn2)CCN1 (stereo not drawn) [Compound 220] | 1 to 10 | > 10 | 0.1 to 1 | 1 to 10 | > 10 | – | –
9 | c1nc2c(-c3cn[nH]c3)ccc(-c3ccc(N4CCCC5(CNC5)C4)nn3)c2s1 [Compound 189] | > 10 | > 10 | > 10 | > 10 | > 10 | – | –
10 | CN(c1ccc(-c2ccc(-c3cnc(=O)[nH]c3)c3scnc23)nn1)C1CC(C)(C)NC(C)(C)C1 [Compound 179] | 0.1 to 1 | 0.1 to 1 | 0.1 to 1 | 0.1 to 1 | 0.1 to 1 | – | –
11 | CC1(C)CC(Oc2ccc(-c3ccc(-c4cn[nH]c4)c4ncsc34)nn2)CCN1 (stereo not drawn) [Compound 182] | 1 to 10 | 1 to 10 | 0.1 to 1 | 1 to 10 | 1 to 10 | < 0.5 | 0.5 to 5
12 | CN(c1ccc(-c2ccc(-c3ccc(=O)n(C)c3)c3scnc23)nn1)C1CC(C)(C)NC(C)(C)C1 [Compound 178] | > 10 | > 10 | > 10 | > 10 | > 10 | – | –
13 | COc1cc(-c2ccc(-c3ccc(N(C)C4CC(C)(C)NC(C)(C)C4)nn3)c3ncsc23)ccn1 [Compound 177] | > 10 | > 10 | 1 to 10 | > 10 | > 10 | – | –
14 | CCN(c1ccc(-c2ccc(-c3cn[nH]c3)c3ncsc23)nn1)C1CC(C)(C)NC(C)(C)C1 [Compound 225, N-ethyl-6-[4-(1H-pyrazol-4-yl)-1,3-benzothiazol-7-yl]-N-(2,2,6,6-tetramethylpiperidin-4-yl)pyridazin-3-amine] | 1 to 10 | 1 to 10 | 0.1 to 1 | 1 to 10 | 1 to 10 | – | –
15 | CN(c1ccc(-c2ccc(-c3ccc(=O)[nH]c3)c3scnc23)nn1)C1CC(C)(C)NC(C)(C)C1 [Compound 180] | 0.1 to 1 | 0.1 to 1 | 0.1 to 1 | 0.1 to 1 | 0.1 to 1 | – | –
16 | c1nc2c(-c3cn[nH]c3)ccc(-c3ccc(C4CCNCC4)nn3)c2s1 [Compound 206] | 1 to 10 | > 10 | < 0.1 | 1 to 10 | > 10 | – | –
17 | c1nc2c(-c3cn[nH]c3)ccc(-c3ccc(N4CCCC5(CCNC5)C4)nn3)c2s1 (stereo not drawn) [Compound 193] | > 10 | > 10 | > 10 | > 10 | > 10 | – | –
18 | Fc1cc(-c2ccc(O[C@@H]3C[C@H]4CC[C@@H](C3)N4)nn2)c2[nH]ncc2c1-c1cn[nH]c1 [Compound 216, 7-[6-[(exo)-8-azabicyclo[3.2.1]octan-3-yloxy]pyridazin-3-yl]-5-fluoro-4-(1H-pyrazol-4-yl)-1H-indazole] | < 0.1 | < 0.1 | < 0.1 | < 0.1 | 0.1 to 1 | – | –
19 | CN(c1ccc(-c2ccc(-c3cn[nH]c3)c3ncsc23)nn1)[C@H]1[C@@H]2CNC[C@@H]21 [Compound 205, (exo-)-N-methyl-N-[6-[4-(1H-pyrazol-4-yl)-1,3-benzothiazol-7-yl]pyridazin-3-yl]-3-azabicyclo[3.1.0]hexan-6-amine] | > 10 | > 10 | 1 to 10 | > 10 | > 10 | – | –
20 | CN(c1ccc(-c2ccc(-n3cccn3)c3nc[nH]c23)nn1)[C@@H]1C[C@H]2CC[C@@H](C1)N2 [Compound 170] | 1 to 10 | 1 to 10 | 0.1 to 1 | 1 to 10 | > 10 | 0.5 to 5 | > 5
21 | Cc1ncc(-c2ccc(-c3ccc(N(C)C4CC(C)(C)NC(C)(C)C4)nn3)c3ncsc23)o1 [Compound 201] | 1 to 10 | 1 to 10 | 0.1 to 1 | 1 to 10 | 1 to 10 | – | –
22 | CN(c1ccc(-c2ccc(-c3cnn(C)c3)c3scnc23)nn1)C1CC(C)(C)NC(C)(C)C1 [Compound 175, N-methyl-6-[7-(1-methylpyrazol-4-yl)-1,3-benzothiazol-4-yl]-N-(2,2,6,6-tetramethylpiperidin-4-yl)pyridazin-3-amine] | > 10 | 1 to 10 | 1 to 10 | > 10 | > 10 | – | –
23 | CCN(c1ccc(-c2ccc(-c3cn[nH]c3)c3ncsc23)nn1)[C@@H]1C[C@H]2CCC[C@@H](C1)N2 [Compound 228] | < 0.1 | 0.1 to 1 | < 0.1 | < 0.1 | < 0.1 | – | –
24 | c1nc2c(-c3cn[nH]c3)ccc(-c3ccc(N4CC5(CCCNC5)C4)nn3)c2s1 [Compound 187, 7-(6-{2,6-diazaspiro [3.5]nonan-2-yl}pyridazin-3-yl)-4-(1H-pyrazol-4-yl)-1,3-benzothiazole] | > 10 | > 10 | 1 to 10 | > 10 | > 10 | > 5 | > 5
25 | CC1(C)CC(Oc2ccc(-c3ccc(-c4cn[nH]c4)c4ncsc34)nn2)CC(C)(C)N1 [Compound 181] | > 10 | > 10 | < 0.1 | > 10 | > 10 | > 5 | > 5
26 | [2H]C([2H])([2H])N(c1ccc(-c2ccc(-c3cn[nH]c3)c3ncsc23)nn1)C1CCNCC1 [Compound 223, N-(D3)methyl-N-(piperidin-4-yl)-6-[4-(1H-pyrazol-4-yl)-1,3-benzothiazol-7-yl] pyridazin-3-amine] | 1 to 10 | 1 to 10 | 0.1 to 1 | 1 to 10 | 1 to 10 | – | –
27 | c1nc2c(-c3cn[nH]c3)ccc(-c3ccc(O[C@@H]4C[C@H]5CC[C@@H](C4)N5)nn3)c2s1 [Compound 184] | 0.1 to 1 | < 0.1 | < 0.1 | 0.1 to 1 | 0.1 to 1 | < 0.5 | 0.5 to 5
